Measured values from ChEMBL document CHEMBL2417377, “Hit-to-lead optimization and kinase selectivity of imidazo[1,2-a]quinoxalin-4-amine derived JNK1 inhibitors” (Bioorg Med Chem Lett, 2013).

What was measured:
Details in all cases: PC-3
[1] = molecular target: Serine/threonine-protein kinase MARK2 (Homo sapiens) (UniProt Q7KZI7); assay: Inhibition of MARK2 in human PC3 cell lysates at 10 uM using desthiobiotin-tagged ATP probe AX9989 followed by trypsinization by LC/MS analysis
[2] = molecular target: Mitogen-activated protein kinase kinase kinase 4 (Homo sapiens) (UniProt Q9Y6R4); assay: Inhibition of MAP3K4 in human PC3 cell lysates at 10 uM using desthiobiotin-tagged ATP probe AX9989 followed by trypsinization by LC/MS analysis
[3] = molecular target: T1, Dual specificity mitogen-activated protein kinase kinase 3 (Homo sapiens) (UniProt P46734); assay: Inhibition of MAP2K3 in human PC3 cell lysates at 10 uM using desthiobiotin-tagged ATP probe AX9989 followed by trypsinization by LC/MS analysis
T1 sequence (whole entry): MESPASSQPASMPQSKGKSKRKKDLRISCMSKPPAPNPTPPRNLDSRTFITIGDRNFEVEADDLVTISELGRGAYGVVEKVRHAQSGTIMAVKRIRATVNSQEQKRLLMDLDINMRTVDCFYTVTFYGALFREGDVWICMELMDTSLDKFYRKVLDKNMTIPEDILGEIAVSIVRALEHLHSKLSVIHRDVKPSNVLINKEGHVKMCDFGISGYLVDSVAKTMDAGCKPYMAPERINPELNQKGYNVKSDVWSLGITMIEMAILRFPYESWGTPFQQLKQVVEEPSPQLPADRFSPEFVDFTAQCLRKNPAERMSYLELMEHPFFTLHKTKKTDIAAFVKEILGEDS

[4] = molecular target: Dual specificity mitogen-activated protein kinase kinase 2 (Homo sapiens) (UniProt P36507); assay: Inhibition of MAP2K2 in human PC3 cell lysates at 10 uM using desthiobiotin-tagged ATP probe AX9989 followed by trypsinization by LC/MS analysis
[5] = molecular target: Serine/threonine-protein kinase 10 (Homo sapiens) (UniProt O94804); assay: Inhibition of LOK in human PC3 cell lysates at 10 uM using desthiobiotin-tagged ATP probe AX9989 followed by trypsinization by LC/MS analysis
[6] = molecular target: Interleukin-1 receptor-associated kinase 1 (Homo sapiens) (UniProt P51617); assay: Inhibition of IRAK1 in human PC3 cell lysates at 10 uM using desthiobiotin-tagged ATP probe AX9989 followed by trypsinization by LC/MS analysis
[7] = molecular target: T2, Eukaryotic translation initiation factor 2-alpha kinase 3 (Homo sapiens) (UniProt Q9NZJ5); assay: Inhibition of PEK in human PC3 cell lysates at 10 uM using desthiobiotin-tagged ATP probe AX9989 followed by trypsinization by LC/MS analysis
T2 sequence (whole entry): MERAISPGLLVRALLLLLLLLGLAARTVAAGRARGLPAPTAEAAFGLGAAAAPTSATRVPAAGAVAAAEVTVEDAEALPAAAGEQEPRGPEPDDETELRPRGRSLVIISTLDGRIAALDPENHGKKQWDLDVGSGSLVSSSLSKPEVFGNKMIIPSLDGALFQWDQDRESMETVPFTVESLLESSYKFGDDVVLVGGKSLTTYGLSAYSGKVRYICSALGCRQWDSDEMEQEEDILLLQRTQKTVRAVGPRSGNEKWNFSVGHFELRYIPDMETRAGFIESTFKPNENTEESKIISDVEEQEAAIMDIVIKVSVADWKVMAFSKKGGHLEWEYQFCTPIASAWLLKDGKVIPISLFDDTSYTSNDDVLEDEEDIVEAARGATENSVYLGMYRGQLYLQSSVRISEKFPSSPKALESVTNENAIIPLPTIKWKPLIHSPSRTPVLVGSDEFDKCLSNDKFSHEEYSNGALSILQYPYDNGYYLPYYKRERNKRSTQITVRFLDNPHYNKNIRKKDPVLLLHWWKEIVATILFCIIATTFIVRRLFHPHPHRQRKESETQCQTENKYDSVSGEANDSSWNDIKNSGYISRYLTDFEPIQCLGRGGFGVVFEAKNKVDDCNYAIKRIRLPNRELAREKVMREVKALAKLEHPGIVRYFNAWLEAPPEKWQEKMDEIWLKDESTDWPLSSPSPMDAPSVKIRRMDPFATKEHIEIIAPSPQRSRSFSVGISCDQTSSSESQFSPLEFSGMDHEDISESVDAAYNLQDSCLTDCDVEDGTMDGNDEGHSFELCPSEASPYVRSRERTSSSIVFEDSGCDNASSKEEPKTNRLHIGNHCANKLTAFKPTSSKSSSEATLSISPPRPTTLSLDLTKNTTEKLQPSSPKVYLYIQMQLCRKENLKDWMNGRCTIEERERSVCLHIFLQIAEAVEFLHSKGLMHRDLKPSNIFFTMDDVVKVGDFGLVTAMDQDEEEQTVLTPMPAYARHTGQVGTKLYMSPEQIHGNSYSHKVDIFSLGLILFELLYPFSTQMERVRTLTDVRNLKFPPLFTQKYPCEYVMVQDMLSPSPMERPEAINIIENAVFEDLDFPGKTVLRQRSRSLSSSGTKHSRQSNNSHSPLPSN

[8] = molecular target: Casein kinase I isoform alpha (Homo sapiens) (UniProt P48729); assay: Inhibition of CK1alpha in human PC3 cell lysates at 10 uM using desthiobiotin-tagged ATP probe AX9989 followed by trypsinization by LC/MS analysis
[9] = molecular target: Phosphatidylinositol 4-kinase beta (Homo sapiens) (UniProt Q9UBF8); assay: Inhibition of PI4KB in human PC3 cell lysates at 10 uM using desthiobiotin-tagged ATP probe AX9989 followed by trypsinization by LC/MS analysis
[10] = molecular target: Cyclin-dependent kinase 10 (Homo sapiens) (UniProt Q15131); assay: Inhibition of CDK10 in human PC3 cell lysates at 10 uM using desthiobiotin-tagged ATP probe AX9989 followed by trypsinization by LC/MS analysis
Chain of Cyclin-dependent kinase 10 (Homo sapiens) (Q15131 whole entry): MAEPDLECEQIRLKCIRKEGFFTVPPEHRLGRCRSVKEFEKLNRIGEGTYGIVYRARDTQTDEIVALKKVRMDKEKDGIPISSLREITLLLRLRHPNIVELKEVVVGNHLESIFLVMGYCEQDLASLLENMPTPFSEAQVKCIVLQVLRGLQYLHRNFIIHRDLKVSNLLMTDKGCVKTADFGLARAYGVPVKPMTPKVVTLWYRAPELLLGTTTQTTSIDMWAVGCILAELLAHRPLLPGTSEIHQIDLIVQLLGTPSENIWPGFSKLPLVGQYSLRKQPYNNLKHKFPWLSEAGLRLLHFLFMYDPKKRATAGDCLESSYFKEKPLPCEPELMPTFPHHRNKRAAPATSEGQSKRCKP

Chain of Casein kinase I isoform alpha (Homo sapiens) (P48729 2-337 limits assumed): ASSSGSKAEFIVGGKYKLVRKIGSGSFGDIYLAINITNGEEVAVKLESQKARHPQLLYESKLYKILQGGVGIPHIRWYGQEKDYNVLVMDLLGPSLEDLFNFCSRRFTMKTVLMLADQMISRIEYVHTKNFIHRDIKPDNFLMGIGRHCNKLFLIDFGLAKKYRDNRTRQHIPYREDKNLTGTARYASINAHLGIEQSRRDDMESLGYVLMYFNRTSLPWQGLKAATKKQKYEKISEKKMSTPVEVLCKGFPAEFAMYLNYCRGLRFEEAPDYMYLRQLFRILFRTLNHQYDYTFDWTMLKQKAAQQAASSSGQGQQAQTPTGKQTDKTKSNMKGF
Chain of Serine/threonine-protein kinase MARK2 (Homo sapiens) (Q7KZI7 whole entry): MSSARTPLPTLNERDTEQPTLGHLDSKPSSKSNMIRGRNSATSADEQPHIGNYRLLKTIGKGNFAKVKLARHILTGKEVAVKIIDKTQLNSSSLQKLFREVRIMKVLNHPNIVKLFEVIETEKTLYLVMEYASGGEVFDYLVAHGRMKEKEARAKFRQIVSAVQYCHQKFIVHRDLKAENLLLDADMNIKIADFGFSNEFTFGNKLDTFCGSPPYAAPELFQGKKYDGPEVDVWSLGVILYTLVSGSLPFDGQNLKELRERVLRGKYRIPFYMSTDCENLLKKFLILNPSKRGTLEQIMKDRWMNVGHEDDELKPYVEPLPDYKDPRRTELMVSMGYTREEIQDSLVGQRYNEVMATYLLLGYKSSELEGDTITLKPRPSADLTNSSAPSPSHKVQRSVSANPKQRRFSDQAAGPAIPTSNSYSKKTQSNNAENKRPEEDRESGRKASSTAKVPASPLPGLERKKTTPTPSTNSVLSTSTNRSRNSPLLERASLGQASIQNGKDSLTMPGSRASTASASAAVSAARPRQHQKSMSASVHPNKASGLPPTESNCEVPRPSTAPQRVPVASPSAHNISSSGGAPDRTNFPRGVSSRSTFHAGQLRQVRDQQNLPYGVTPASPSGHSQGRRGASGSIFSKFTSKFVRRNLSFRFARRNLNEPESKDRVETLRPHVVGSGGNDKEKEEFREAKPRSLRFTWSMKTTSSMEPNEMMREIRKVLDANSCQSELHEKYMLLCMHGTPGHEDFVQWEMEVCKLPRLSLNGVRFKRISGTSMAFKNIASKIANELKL
Chain of Interleukin-1 receptor-associated kinase 1 (Homo sapiens) (P51617 whole entry, looked up): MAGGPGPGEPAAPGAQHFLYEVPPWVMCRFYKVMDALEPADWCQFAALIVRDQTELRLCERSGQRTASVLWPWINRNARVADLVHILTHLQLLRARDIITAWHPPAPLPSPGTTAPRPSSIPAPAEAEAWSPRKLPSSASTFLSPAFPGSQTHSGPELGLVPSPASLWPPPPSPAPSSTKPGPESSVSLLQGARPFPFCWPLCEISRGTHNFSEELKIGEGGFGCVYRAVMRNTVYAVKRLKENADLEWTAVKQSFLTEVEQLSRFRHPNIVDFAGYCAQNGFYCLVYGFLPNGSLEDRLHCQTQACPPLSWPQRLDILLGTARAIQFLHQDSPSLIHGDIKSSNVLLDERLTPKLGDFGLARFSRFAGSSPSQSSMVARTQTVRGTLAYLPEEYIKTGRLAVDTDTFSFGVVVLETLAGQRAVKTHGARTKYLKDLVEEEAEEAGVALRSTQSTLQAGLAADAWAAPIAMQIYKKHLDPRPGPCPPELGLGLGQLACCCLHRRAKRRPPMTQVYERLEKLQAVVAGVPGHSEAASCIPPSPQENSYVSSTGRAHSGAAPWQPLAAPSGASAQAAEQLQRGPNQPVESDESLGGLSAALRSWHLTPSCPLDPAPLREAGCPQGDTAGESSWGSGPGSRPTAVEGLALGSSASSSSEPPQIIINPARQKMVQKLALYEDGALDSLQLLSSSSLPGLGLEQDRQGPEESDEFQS
Chain of Phosphatidylinositol 4-kinase beta (Homo sapiens) (Q9UBF8 2-816 limits assumed): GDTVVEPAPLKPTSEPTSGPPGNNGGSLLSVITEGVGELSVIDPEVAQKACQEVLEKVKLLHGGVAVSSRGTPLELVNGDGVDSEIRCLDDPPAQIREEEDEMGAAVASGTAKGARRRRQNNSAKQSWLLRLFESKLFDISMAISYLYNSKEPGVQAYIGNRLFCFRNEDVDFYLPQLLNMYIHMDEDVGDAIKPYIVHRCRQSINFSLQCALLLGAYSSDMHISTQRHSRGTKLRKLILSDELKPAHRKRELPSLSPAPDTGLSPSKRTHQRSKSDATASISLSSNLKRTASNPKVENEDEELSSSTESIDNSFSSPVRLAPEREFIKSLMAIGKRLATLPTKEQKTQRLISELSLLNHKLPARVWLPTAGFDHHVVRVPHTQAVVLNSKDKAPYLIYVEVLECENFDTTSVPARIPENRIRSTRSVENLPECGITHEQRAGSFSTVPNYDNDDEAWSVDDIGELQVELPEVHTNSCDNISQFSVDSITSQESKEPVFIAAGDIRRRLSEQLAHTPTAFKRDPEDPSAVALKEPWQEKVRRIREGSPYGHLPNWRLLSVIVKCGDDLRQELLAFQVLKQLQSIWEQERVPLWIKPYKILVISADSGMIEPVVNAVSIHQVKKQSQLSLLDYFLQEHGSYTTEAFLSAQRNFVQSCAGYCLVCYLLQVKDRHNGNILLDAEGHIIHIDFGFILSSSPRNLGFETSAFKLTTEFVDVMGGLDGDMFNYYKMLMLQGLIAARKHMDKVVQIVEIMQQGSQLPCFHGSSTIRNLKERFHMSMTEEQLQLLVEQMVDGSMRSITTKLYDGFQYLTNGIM
Chain of Dual specificity mitogen-activated protein kinase kinase 2 (Homo sapiens) (P36507 whole entry): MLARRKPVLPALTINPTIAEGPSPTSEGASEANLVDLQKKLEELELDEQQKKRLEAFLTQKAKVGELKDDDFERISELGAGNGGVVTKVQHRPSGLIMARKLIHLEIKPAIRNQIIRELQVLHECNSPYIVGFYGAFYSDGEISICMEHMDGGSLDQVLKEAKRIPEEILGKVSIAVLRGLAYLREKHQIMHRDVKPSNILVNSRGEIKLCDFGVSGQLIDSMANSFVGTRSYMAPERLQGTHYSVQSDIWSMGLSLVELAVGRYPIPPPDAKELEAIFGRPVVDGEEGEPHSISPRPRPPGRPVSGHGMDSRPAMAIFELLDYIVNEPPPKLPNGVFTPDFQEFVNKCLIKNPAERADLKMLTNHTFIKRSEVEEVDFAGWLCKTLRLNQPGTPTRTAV
Chain of Mitogen-activated protein kinase kinase kinase 4 (Homo sapiens) (Q9Y6R4 whole entry): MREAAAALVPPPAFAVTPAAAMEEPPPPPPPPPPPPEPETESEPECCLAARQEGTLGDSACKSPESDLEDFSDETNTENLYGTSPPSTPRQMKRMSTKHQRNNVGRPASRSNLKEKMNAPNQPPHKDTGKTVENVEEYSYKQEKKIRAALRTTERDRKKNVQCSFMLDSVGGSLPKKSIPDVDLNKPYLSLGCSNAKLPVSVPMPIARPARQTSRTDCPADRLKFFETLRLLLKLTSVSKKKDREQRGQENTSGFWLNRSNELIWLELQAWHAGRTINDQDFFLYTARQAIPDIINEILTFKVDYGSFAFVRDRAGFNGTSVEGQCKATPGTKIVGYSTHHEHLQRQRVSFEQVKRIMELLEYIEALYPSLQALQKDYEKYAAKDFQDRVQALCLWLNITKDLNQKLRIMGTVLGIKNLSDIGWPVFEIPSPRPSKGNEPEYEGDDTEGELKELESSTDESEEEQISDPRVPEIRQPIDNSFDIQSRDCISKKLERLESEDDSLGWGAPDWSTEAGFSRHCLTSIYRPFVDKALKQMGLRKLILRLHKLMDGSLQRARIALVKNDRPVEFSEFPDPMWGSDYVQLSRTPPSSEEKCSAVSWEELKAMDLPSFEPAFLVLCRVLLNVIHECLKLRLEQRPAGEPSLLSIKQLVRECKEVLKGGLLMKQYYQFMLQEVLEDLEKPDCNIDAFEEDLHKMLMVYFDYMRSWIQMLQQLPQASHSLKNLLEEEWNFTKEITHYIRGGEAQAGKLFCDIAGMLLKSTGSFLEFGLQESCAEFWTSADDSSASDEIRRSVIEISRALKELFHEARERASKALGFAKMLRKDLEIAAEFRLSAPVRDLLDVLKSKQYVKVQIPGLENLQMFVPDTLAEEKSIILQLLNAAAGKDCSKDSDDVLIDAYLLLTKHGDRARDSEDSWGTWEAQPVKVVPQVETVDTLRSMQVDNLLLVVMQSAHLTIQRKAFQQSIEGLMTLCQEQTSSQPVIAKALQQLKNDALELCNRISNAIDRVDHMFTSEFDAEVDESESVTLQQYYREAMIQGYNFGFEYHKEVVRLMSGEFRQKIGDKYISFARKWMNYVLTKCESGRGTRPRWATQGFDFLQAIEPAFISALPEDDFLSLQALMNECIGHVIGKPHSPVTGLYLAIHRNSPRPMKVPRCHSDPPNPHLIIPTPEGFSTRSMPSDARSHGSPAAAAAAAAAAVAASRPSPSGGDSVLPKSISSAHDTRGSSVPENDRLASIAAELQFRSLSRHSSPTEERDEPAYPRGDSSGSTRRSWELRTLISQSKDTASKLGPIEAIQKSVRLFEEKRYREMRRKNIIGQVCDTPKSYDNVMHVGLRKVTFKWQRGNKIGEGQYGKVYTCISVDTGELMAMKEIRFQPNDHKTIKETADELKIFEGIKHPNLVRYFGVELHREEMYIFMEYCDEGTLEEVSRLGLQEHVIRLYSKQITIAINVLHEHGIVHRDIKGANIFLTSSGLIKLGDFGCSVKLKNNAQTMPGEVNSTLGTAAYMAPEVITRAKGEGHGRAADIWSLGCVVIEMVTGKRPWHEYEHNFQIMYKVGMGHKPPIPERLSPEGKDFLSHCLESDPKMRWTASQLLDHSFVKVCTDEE

inhibition [1]	inhibition [2]	inhibition [3]	inhibition [4]	inhibition [5]	inhibition [6]	inhibition [7]	inhibition [8]	inhibition [9]	inhibition [10]	SMILES
< 35%	< 35%	< 35%	< 35%	< 35%	< 35%	< 35%	69%	94.2%	90.4%	NC(=O)c1ccc2nc(N[C@H]3CC[C@H](O)CC3)c3nccn3c2c1
< 35%	< 35%	< 35%	< 35%	< 35%	< 35%	< 35%	< 35%	< 35%	< 35%	O=C(NC1(Cc2ccc(F)cc2)CC1)c1ccc2nc(N[C@H]3CC[C@H](O)CC3)c3nccn3c2c1
< 35%	< 35%	< 35%	< 35%	< 35%	< 35%	< 35%	< 35%	< 35%	59.1%	O=C(NC1(c2ccccc2)CCC1)c1ccc2nc(N[C@H]3CC[C@H](O)CC3)c3nccn3c2c1
< 35%	< 35%	< 35%	< 35%	< 35%	< 35%	38.4%	< 35%	40.4%	56.2%	C[C@@H](NC(=O)c1ccc2nc(N[C@H]3CC[C@H](O)CC3)c3nccn3c2c1)c1ccccc1
< 35%	< 35%	< 35%	< 35%	< 35%	< 35%	< 35%	< 35%	< 35%	< 35%	CC[C@@H](NC(=O)c1ccc2nc(N[C@H]3CC[C@H](O)CC3)c3nccn3c2c1)c1ccccc1
< 35%	< 35%	< 35%	< 35%	< 35%	< 35%	< 35%	< 35%	< 35%	< 35%	C[C@H](NC(=O)c1ccc2nc(N[C@H]3CC[C@H](O)CC3)c3nccn3c2c1)c1ccccc1
< 35%	< 35%	< 35%	< 35%	< 35%	< 35%	< 35%	< 35%	51%	46.6%	O=C(N[C@H](CO)c1ccccc1)c1ccc2nc(N[C@H]3CC[C@H](O)CC3)c3nccn3c2c1
< 35%	< 35%	< 35%	< 35%	< 35%	< 35%	< 35%	< 35%	< 35%	< 35%	O=C(NC1(c2ccccc2)CC1)c1ccc2nc(N[C@H]3CC[C@H](O)CC3)c3nccn3c2c1
< 35%	< 35%	< 35%	< 35%	< 35%	< 35%	< 35%	< 35%	< 35%	< 35%	CCC[C@@H](NC(=O)c1ccc2nc(N[C@H]3CC[C@H](O)CC3)c3nccn3c2c1)c1ccccc1
< 35%	< 35%	< 35%	< 35%	< 35%	< 35%	< 35%	< 35%	< 35%	< 35%	CC(C)(NC(=O)c1ccc2nc(N[C@H]3CC[C@H](O)CC3)c3nccn3c2c1)c1ccccc1
< 35%	< 35%	< 35%	< 35%	< 35%	< 35%	37.5%	57.1%	99.2%	91.3%	O=C(O)c1ccc2nc(N[C@H]3CC[C@H](O)CC3)c3nccn3c2c1
< 35%	< 35%	< 35%	< 35%	< 35%	< 35%	< 35%	< 35%	< 35%	< 35%	O=C(NC1(c2ccc(F)cc2)CC1)c1ccc2nc(N[C@H]3CC[C@H](O)CC3)c3nccn3c2c1
